{"source": "patent US20160008277A1", "about": "“CO-PACKAGED DRUG PRODUCTS” (Lightlake Therapeutics Inc., priority 2014, published 2016)", "origin": "cited, not measured here", "key": {"[1]": {"system": "rat", "settings": "intravenous; cited from earlier work"}, "[2]": {"system": "newborn rats", "settings": "acute subcutaneous; cited from earlier work"}, "[3]": {"system": "mouse", "settings": "intravenous; cited from earlier work"}}, "data": [{"smiles": "C=CCN1CC[C@]23c4c5ccc(O)c4O[C@H]2C(=O)CC[C@@]3(O)[C@H]1C5.Cl", "note": "[naloxone hydrochloride, 17-allyl-4,5a-epoxy-3,14-dihydroxymorphinan-6-one hydrochloride]", "values": [{"measurement": "LD50", "setting": "[1]", "value": "109 ± 4", "unit": "mg/kg"}, {"measurement": "LD50 (95% CL)", "setting": "[2]", "value": "260 (228-296) mg/kg"}, {"measurement": "LD50", "setting": "[3]", "value": "150 ± 5", "unit": "mg/kg"}]}]}
